From patent US7851479B2, “Use of pyrimidinedione derivative for preventing or treating hepatitis C” (priority 2006, dated 2010)
Read-outs that look alike come from different tables or passages of the source.

How the values were obtained:
[1] = test system: bovine viral diarrhea virus (BVDV); test: anti-BVDV drug screening assay (CPE inhibition, MTS staining); assay type: cell-based; conditions: for EC50: Bovine viral diarrhea virus isolates and strains, 144 h, read-out: MDBK/BVDV EC50; for TI (TC50/EC50): therapeutic index, MDBK TC50 / BVDV EC50
Description: To assess the effectiveness of the pyrimidinedione derivative used in the present invention as a drug for preventing or treating hepatitis C, an anti-BVDV drug screening assay was conducted with bovine viral diarrhea virus (BVDV). BVDV, a virus having a genome, reproduction cycle and infection type similar to hepatitis C virus, was employed because hepatitis C virus can not be subjected to […] cultivation.
(§1) One day before the screening, MDBK cell line (Mardin-Darby bovine kidney, ATTC CCL22) which had been subcultured previously was trypsinized and spread on a plate, followed by counting the cell colonies formed. Then, equal amount of DMEM (Dulbecco's Modified Eagle's Medium) and Ham's F-12 were mixed, and 10% fetal bovine serum was added to the resulting mixture to prepare a tissue culture medium. The MDBK cells were inoculated to the medium at a concentration of 6×10^4 cells/ml, and then the resulting cell solution was added to a 96-well flat-bottomed plate in an amount of 100 μl per well.
Meanwhile, BVDV (ATCC VR534), which had been stored in a −80° C. freezer at a pre-determined concentration, was transferred to a biological safety cabinet and allowed to thaw at room temperature. The virus was diluted with the tissue culture medium in an sufficient amount for the virus in each well to induce 85 to 95% cell death 6 days after the virus infection.
(§2) Specified pyrimidinedione derivatives (SAMJIN Pharmaceuticals) were prepared as test compounds and a conventional drug for treating hepatitis C, Ribavirin (Sigma) was used as a comparative drug. Each of the test compounds was dissolved in DMSO to prepare a sample solution. Then, the resulting sample solution was diluted with a mixture prepared by mixing equal amount of DMEM and Ham's F-12 in accordance with the three one-log series dilution to prepare sample dilutes.
(§3) One day after adding MDBK cells to the 96-well plate, the culture solution on the plate was removed and each of the sample dilutes obtained step 2 was added thereto, adjusting the final concentration thereof to 1 to 100 μg/ml. The comparative drug, Ribavirin, was added to each of the control wells of the palte at a concentration of 1 to 100 μg/ml.
(§4) The well-plate comprising ‘cell control group well’ containing MDBK cell only; ‘virus control well’ containing MDBK cell and BVDV virus; ‘drug toxicity control well’ containing MDBK cell and sample compounds for assessing the cell toxicity of each sample; ‘drug calorimetric control well’ containing only one of the sample compounds; and ‘experimental group well’ containing MDBK cell, BVDV virus and one of the sample compounds.
(§5) The well-plate had been placed in a 5% CO2 incubator at 37° C. for 6 days, and then, analyzed with Cell Proliferation Assay kit (CellTiter96® AQUEOUS one solution, Promega). The analysis involves the step of counting live cells by a colorimetric method and the kit contains MTS, a new tetrazolium compound which forms a stable solution when the test compounds are added, and PES, an electron coupling agent. In a cell having vigorous metabolism, NADPH or NADH generated by mitochodrial dehydrogenase renders the soluble MTS to a form of […] formazan crystals. Therefore, the amount of formazan crystal is directly proportional to the number of live cells in a medium.
(§6) The CellTiter96® AQUEOUS one solution reagent of 10 μl was added to each well of the plate and cultivated in a incubator at 37° C. for 4 hours. Then, the plate was covered with an adhesive plate sealer, mixing formazan crystals. Absorbance of each well was measured by Molecular Devices Vmax plate reader (Molecular Devices) at 490 nm.
The toxicity of each sample compound was analyzed with a in-house computer program and the cytopathic effect (CPE), followed by calculating % cell activity, therapeutic Index (TI). […]

[2] = drug toxicity control in uninfected MDBK cells (MTS staining); assay type: cell-based; conditions: bovine
Description: as §1, §2, §3, §4, §5, §6
The toxicity of each sample compound was analyzed with a in-house computer program and the cytopathic effect (CPE), followed by calculating % cell activity, therapeutic Index (TI).
In table 2, EC50 means the dosage at which the desired response is present for 50% of the population, i.e., the concentration of the sample compounds at which the BVDV infection was inhibited for 50% of MDBK cells; TC50 means the dosage at which cell death is induced for 50% of the population, i.e., the cytotoxicity of the sample compounds for MDBK cells. TI (TC50/EC50) means a comparison of the amount of a therapeutic agent that causes the therapeutic effect to the amount that causes toxic effects. Quantitatively, it is the ratio given by the dose required to produce the toxic effect divided by the therapeutic dose.

[3] = concentration at which BVDV infection was inhibited for 50% of MDBK cells, 6 days, MTS

SMILES	EC50 [1, 3] [µM]	TI (TC50/EC50) [1]	CC50 at 6 days [2] [µM]	EC50 ([1]; MDBK) [µM]	CC50 at 6 days ([2]; uninfected MDBK cells (drug toxicity control wells), cytotoxicity for MDBK cells, 6 days, MTS, read-out: MDBK TC50) [µM]
Cc1cc(C)cc(C(=O)c2c(C(C)C)c(=O)[nH]c(=O)n2CC2=CCCC2)c1 [Sample 1i, 1-cyclopent-1-enymethyl-6-(3,5-dimethyl-benzoyl)-5-isopropyl-1H-pyrimidine-2,4-dione]	1.36	15.0	20.5	–	–
Cc1cc(C)cc(Sc2c(C(C)C)c(=O)[nH]c(=O)n2CCC2CCCC2)c1 [Sample 1l, 1-(2-cyclopentyl-ethyl)-6-(3,5-dimethyl-phenylsulfanyl)-5-isopropyl-1H-pyrimidine-2,4-dione]	14	>3.6	> 50	–	–
Cc1cc(C)cc(Sc2c(C(C)C)c(=O)[nH]c(=O)n2CC2=CCCC2)c1 [Sample 1e, 1-cyclopent-1-enymethyl-6-(3,5-dimethyl-phenylsulfanyl)-5-isopropyl-1H-pyrimidine-2,4-dione]	10.2	>4.9	> 50	–	–
Cc1cc(C)cc(Oc2c(C(C)C)c(=O)[nH]c(=O)n2CCC2C=CCC2)c1 (stereo not drawn) [Sample 1m, 1-(2-cyclopent-2-enyl-ethyl)-6-(3,5-dimethyl-phenoxy)-5-isopropyl-1H-pyrimidine-2,4-dione]	–	>3.7	> 50	13.4	–
CCc1c(C(=O)c2cc(C)cc(C)c2)n(CC2=CCCC2)c(=O)[nH]c1=O [Sample 1h, 1-cyclopent-1-enymethyl-6-(3,5-dimethyl-benzoyl)-5-ethyl-1H-pyrimidine-2,4-dione]	13.9	1.2	17.1	–	–
Cc1cc(C)cc(Sc2c(C(C)C)c(=O)[nH]c(=O)n2CC2CC2)c1 [Sample 1a, 1-cyclopropylmethyl-6-(3,5-dimethyl-phenylsulfanyl)-5-isopropyl-1H-pyrimidine-2,4-dione]	1.57	4.2	6.6	–	–
CCc1c(Oc2cc(C)cc(C)c2)n(CC2=CCCC2)c(=O)[nH]c1=O [Sample 1f, 1-cyolopent-1-enymethyl-6-(3,5-dimethyl-phenoxy)-5-ethyl-1H-pyrimidine-2,4-dione]	1.51	>66.3	> 100	–	–
Cc1cc(C)cc(Sc2c(C(C)C)c(=O)[nH]c(=O)n2CC2CCC2)c1 [Sample 1c, 1-cyclobutylmethyl-6-(3,5-dimethyl-phenylsulfanyl)-5-isopropyl-1H-pyrimidine-2,4-dione]	1.44	4.58	6.6	–	–
Cc1cc(C)cc(C(=O)c2c(C(C)C)c(=O)[nH]c(=O)n2CCC2C=CCC2)c1 (stereo not drawn) [Sample 1o, 1-(2-cyclopent-2-enyl-ethyl)-6-(3,5-dimethyl-benzoyl)-5-isopropyl-1H-pyrimidine-2,4-dione]	–	3.73	6.94	1.86	–
CCc1c(C(=O)c2cc(C)cc(C)c2)n(CC2=CCC(CO)C2)c(=O)[nH]c1=O (stereo not drawn) [Sample 1p, 6-(3,5-dimethyl-benzoyl)-5-ethyl-1-(4-hydroxymethyl-cyclopent-1-enylmethyl)-1H-pyrimidine-2,4-dione]	15	5.11	66	–	–
Cc1cc(C)cc(Oc2c(C(C)C)c(=O)[nH]c(=O)n2CC2=CCCC2)c1 [Sample 1g, 1-cyclopent-1-enymethyl-6-(3,5-dimethyl-phenoxy)-5-isopropyl-1H-pyrimidine-2,4-dione]	20.1	>2.5	> 50	–	–
Cc1cc(C)cc(Sc2c(C(C)C)c(=O)[nH]c(=O)n2CC2CCCC2)c1 [Sample 1d, 1-cyclopentylmethyl-6-(3,5-dimethyl-phenylsulfanyl)-5-isopropyl-1H-pyrimidine-2,4-dione]	13.7	>3.7	> 50	–	–
Cc1cc(C)cc(Sc2c(C(C)C)c(=O)[nH]c(=O)n2CC2CCCCC2)c1 [Sample 1k, 1-cyclohexylmethyl-6-(3,5-dimethyl-phenylsulfanyl)-5-isopropyl-1H-pyrimidine-2,4-dione]	1.29	5.11	6.6	–	–
CCc1c(Oc2cc(C)cc(C)c2)n(CC2CC2)c(=O)[nH]c1=O [Sample 1b, 1-cyclopropylmethyl-6-(3,5-dimethyl-phenoxy)-5-ethyl-1H-pyrimidine-2,4-dione]	14.1	>7.1	> 100	–	–
CC(C)c1c(Sc2ccccc2)n(CC2CC=CC2)c(=O)[nH]c1=O [Sample 1j, 1-cyclopent-3-enymethyl-5-isopropyl-6-phenylsulfanyl-1H-pyrimidine-2,4-dione]	13.7	>3.7	> 50	–	–
NC(=O)c1ncn([C@@H]2O[C@H](CO)[C@@H](O)[C@H]2O)n1 [Ribavirin, reference compound]	1.66	4.2	–	–	7
